The conditions of series [1]: cited from earlier work.
Series [2] in a line: Solubility of NUC-7738 in a range of solvents. In kind it is physicochemical.
Series [3] is described as follows: NUC-7738 concentrate mixed with Tween 80 and added to saline, checked by eye for precipitation; assay and purity after 48 h. In kind it is physicochemical. The method, then: 50 µL of a 100 mg/mL concentrate of NUC-7738 (mixture of diastereoisomers) in a range of solvents (DMA, DMSO, NMP, ethanol, benzyl alcohol) was mixed with 50 µL of Tween® 80 and added to 1.150 mL saline and the resultant solutions were checked by eye for precipitation of NUC-7738. Similarly a 50 µL concentrate of NUC-7738 (mixture of diastereoisomers) in Tween® 80 was mixed with 50 µL water for injection and then added to 1.150 mL saline.
(§1) Even a solubiliser is not effective, in the absence of a polar aprotic solvent, at retaining NUC-7738 in solution in aqueous conditions. The solutions prepared above were assayed for NUC-7738 content and purity on being formed and also after 48 h. […] In a further experiment, the […] concentration of NUC-7738 in solvents that could be diluted with saline without precipitation was determined. Solutions of NUC-7738 (mixture of diastereoisomers) at various concentrations in NMP, DMSO and DMA were prepared and 100 µL of the solutions were added to 2.40 mL saline.

Series [4] in a line: NUC-7738 solutions in NMP, DMSO, DMA diluted with saline, observed for precipitation. In kind it is physicochemical. The method, then: as §1
Setting [5] is: solutions of Table 8, after 48 h versus on being formed.

With `C[C@H](NP(=O)(OC[C@H]1O[C@@H](n2ccc(N)nc2=O)C(F)(F)[C@@H]1O)Oc1ccccc1)C(=O)OCc1ccccc1` (stereo partly drawn) [NUC-1031, 2′-deoxy-2′,2′-difluoro-D-cytidine-5′-O-[phenyl (benzoxy-L-alaninyl)] phosphate], the “Stability (to precipitation and to degradation)” value in series [1] (S-isomer alone or mixture of R and S epimers at 4, 8 and 10 mg/mL, 48 hours after dilution in 0.45% and 0.9% saline, pH 4.5, 6.0 and 7.0, not stirred) is recorded as “stable”. For the same molecule, the Osmolarity result in series [1] (all of the NUC-1031 solutions) is reported as “acceptable for peripheral administration”.
For orientation: Solubility means the dissolved amount per volume that the medium holds. The low end stands for a poorly soluble substance, the high end for a readily soluble substance. On to `C[C@H](NP(=O)(OC[C@@H]1C[C@@H](O)[C@H](n2cnc3c(N)ncnc32)O1)Oc1ccccc1)C(=O)OCc1ccccc1` (stereo partly drawn) [NUC-7738, 3′-deoxyadenosine-5′-O-[phenyl(benzyloxy-L-alaninyl)] phosphate], for which the Solubility in series [2] (5% Tween in water) was <11.8 mg/mL; in series [2] (DMA), >667 mg/mL; in series [2] (DMSO), >667 mg/mL; in series [2] (Ethanol) it was >667 mg/mL; in series [2] (Heptane), <12 mg/mL; in series [2] (NMP), >667 mg/mL. In addition, the Solubility is given as >667 mg/mL in series [2] (Propylene Glycol), <9 mg/mL in series [2] (isopropylacetate) and <11 mg/mL in series [2] (tbutylmethylether). In addition, the Appearance entry was “White precipitate, milky solution” in series [3] (100 mg/mL concentrate in BnOH 50 + TW80 50 + Saline 1150); “Clear and limpid solution” in series [3] (100 mg/mL concentrate in DMA 50 + TW80 50 + Saline 1150); “Clear and limpid solution” in series [3] (100 mg/mL concentrate in DMSO 50 + TW80 50 + Saline 1150); “White precipitate, milky solution” in series [3] (100 mg/mL concentrate in EtOH 50 + TW80 50 + Saline 1150); “Clear and limpid solution” in series [3] (100 mg/mL concentrate in NMP 50 + TW80 50 + Saline 1150); “White precipitate, milky solution” in series [3] (concentrate in TW80 50 + WFI 50 + Saline 1150). Besides, the Appearance entry is “White insoluble precipitate from the first drop” in series [4] (DMA 25 mg/ml concentrate 100 + Saline 2400); “White precipitate after addition of 100 μL” in series [4] (DMSO 25 mg/ml concentrate 100 + Saline 2400); “White insoluble precipitate from the first drop” in series [4] (DMSO 50 mg/ml concentrate 100 + Saline 2400); “White insoluble precipitate from the first drop” in series [4] (DMSO 100 mg/ml concentrate 100 + Saline 2400); “Clear and limpid solution” in series [4] (NMP 25 mg/ml concentrate 100 + Saline 2400); “White insoluble precipitate from the first drop” in series [4] (NMP 50 mg/ml concentrate 100 + Saline 2400). The Appearance result in series [4] (NMP 100 mg/ml concentrate 100 + Saline 2400) is listed as “White insoluble precipitate from the first drop”. Moreover, the Assay content result in series [3] (setting [5]) is listed as “substantially unchanged”. In addition, in series [3] (setting [5]), the Purity entry was “substantially unchanged”.

These data come from patent publication US12357652B2, “Formulations of phosphoramidate derivatives of nucleoside drugs” (priority 2015, dated 2025).
